Test: xn = mol fraction of the nth substance listed
Conditions: Liquid

CCCCO [butan-1-ol] + O=C=O
Conditions	mass density [kg/m3]
352.82 K, 13001 kPa, x2 = 0.1842	780.49
352.82 K, 14050 kPa, x2 = 0.1842	781.67
352.82 K, 15000 kPa, x2 = 0.1842	782.72
352.82 K, 15999 kPa, x2 = 0.1842	783.84
352.82 K, 17008 kPa, x2 = 0.1842	784.88
352.82 K, 18066 kPa, x2 = 0.1842	786.01
352.82 K, 19002 kPa, x2 = 0.1842	787.01
352.82 K, 20015 kPa, x2 = 0.1842	788.03
352.82 K, 21043 kPa, x2 = 0.1842	789.11
352.82 K, 22025 kPa, x2 = 0.1842	790.1
352.82 K, 23024 kPa, x2 = 0.1842	791.11
352.82 K, 24015 kPa, x2 = 0.1842	792.1
352.82 K, 25100 kPa, x2 = 0.1842	793.18
352.83 K, 2007 kPa, x2 = 0.0857	766.96
352.83 K, 3023 kPa, x2 = 0.0857	768.13
352.83 K, 3953 kPa, x2 = 0.0857	769.18
352.83 K, 5008 kPa, x2 = 0.0857	770.34
352.83 K, 5991 kPa, x2 = 0.0857	771.43
352.83 K, 7011 kPa, x2 = 0.0857	772.54
352.83 K, 7992 kPa, x2 = 0.0857	773.57
352.83 K, 9016 kPa, x2 = 0.0857	774.63
352.83 K, 10033 kPa, x2 = 0.0857	775.71
352.83 K, 10983 kPa, x2 = 0.0857	776.62
352.83 K, 12020 kPa, x2 = 0.0857	777.74
352.83 K, 13038 kPa, x2 = 0.0857	778.75
352.83 K, 13990 kPa, x2 = 0.0857	779.64
352.83 K, 14986 kPa, x2 = 0.0857	780.63
352.83 K, 16028 kPa, x2 = 0.0857	781.61
352.83 K, 16995 kPa, x2 = 0.0857	782.54
352.83 K, 17994 kPa, x2 = 0.0857	783.45
352.83 K, 18991 kPa, x2 = 0.0857	784.4
352.83 K, 20014 kPa, x2 = 0.0857	785.33
352.83 K, 21017 kPa, x2 = 0.0857	786.18
352.83 K, 21993 kPa, x2 = 0.0857	787.09
352.83 K, 23041 kPa, x2 = 0.0857	788.01
352.83 K, 24037 kPa, x2 = 0.0857	788.92
352.83 K, 25058 kPa, x2 = 0.0857	789.81
352.85 K, 13091 kPa, x2 = 0.4972	783.81
352.85 K, 13958 kPa, x2 = 0.4972	785.52
352.85 K, 15066 kPa, x2 = 0.4972	787.67
352.85 K, 16029 kPa, x2 = 0.4972	789.49
352.85 K, 17077 kPa, x2 = 0.4972	791.44
352.85 K, 18031 kPa, x2 = 0.4972	793.15
352.85 K, 19033 kPa, x2 = 0.4972	794.93
352.85 K, 20018 kPa, x2 = 0.4972	796.63
352.85 K, 21055 kPa, x2 = 0.4972	798.4
352.85 K, 22035 kPa, x2 = 0.4972	800
352.85 K, 23067 kPa, x2 = 0.4972	801.7
352.85 K, 24007 kPa, x2 = 0.4972	803.18
352.85 K, 25035 kPa, x2 = 0.4972	804.81
352.88 K, 14075 kPa, x2 = 0.5965	780.49
352.88 K, 15042 kPa, x2 = 0.5965	783.18
352.88 K, 16039 kPa, x2 = 0.5965	785.88
352.88 K, 17076 kPa, x2 = 0.5965	788.55
352.88 K, 18030 kPa, x2 = 0.5965	790.96
352.88 K, 18449 kPa, x2 = 0.8663	712.26
352.88 K, 19037 kPa, x2 = 0.5965	793.41
352.88 K, 19044 kPa, x2 = 0.8663	719.05
352.88 K, 20049 kPa, x2 = 0.5965	795.8
352.88 K, 20064 kPa, x2 = 0.8663	729.73
352.88 K, 21030 kPa, x2 = 0.5965	798.05
352.88 K, 21052 kPa, x2 = 0.8663	739.04
352.88 K, 22036 kPa, x2 = 0.5965	800.27
352.88 K, 22047 kPa, x2 = 0.8663	747.62
352.88 K, 23019 kPa, x2 = 0.5965	802.43
352.88 K, 23067 kPa, x2 = 0.8663	755.76
352.88 K, 24035 kPa, x2 = 0.8663	762.91
352.88 K, 24039 kPa, x2 = 0.5965	804.6
352.88 K, 25048 kPa, x2 = 0.8663	769.99
352.88 K, 25092 kPa, x2 = 0.5965	806.79
362.66 K, 20602 kPa, x2 = 0.9698	595.03
362.66 K, 21041 kPa, x2 = 0.9698	604.05
362.66 K, 22017 kPa, x2 = 0.9698	622.53
362.66 K, 23022 kPa, x2 = 0.9698	639.79
362.66 K, 24038 kPa, x2 = 0.9698	655.56
362.66 K, 25046 kPa, x2 = 0.9698	669.85
362.67 K, 1053 kPa, x2 = 0.0251	755.01
362.67 K, 2066 kPa, x2 = 0.0251	756.19
362.67 K, 3045 kPa, x2 = 0.0251	757.27
362.67 K, 4013 kPa, x2 = 0.0251	758.36
362.67 K, 5068 kPa, x2 = 0.0251	759.49
362.67 K, 6009 kPa, x2 = 0.0251	760.49
362.67 K, 6988 kPa, x2 = 0.0251	761.58
362.67 K, 7985 kPa, x2 = 0.0251	762.59
362.67 K, 9006 kPa, x2 = 0.0251	763.64
362.67 K, 10031 kPa, x2 = 0.0251	764.7
362.67 K, 11027 kPa, x2 = 0.0251	765.69
362.67 K, 12000 kPa, x2 = 0.0251	766.65
362.67 K, 13054 kPa, x2 = 0.0251	767.68
362.67 K, 14008 kPa, x2 = 0.0251	768.61
362.67 K, 14993 kPa, x2 = 0.0251	769.57
362.67 K, 16000 kPa, x2 = 0.0251	770.52
362.67 K, 17046 kPa, x2 = 0.0251	771.48
362.67 K, 17989 kPa, x2 = 0.0251	772.34
362.67 K, 19009 kPa, x2 = 0.0251	773.27
362.67 K, 20045 kPa, x2 = 0.0251	774.19
362.67 K, 21017 kPa, x2 = 0.0251	775.08
362.67 K, 22075 kPa, x2 = 0.0251	775.99
362.67 K, 23006 kPa, x2 = 0.0251	776.82
362.67 K, 24007 kPa, x2 = 0.0251	777.69
362.67 K, 25062 kPa, x2 = 0.0251	778.61
362.69 K, 2045 kPa, x2 = 0.0857	757.33
362.69 K, 3006 kPa, x2 = 0.0857	758.53
362.69 K, 3982 kPa, x2 = 0.0857	759.72
362.69 K, 5010 kPa, x2 = 0.0857	760.91
362.69 K, 5976 kPa, x2 = 0.0857	762.09
362.69 K, 6994 kPa, x2 = 0.0857	763.25
362.69 K, 7999 kPa, x2 = 0.0857	764.42
362.69 K, 8998 kPa, x2 = 0.0857	765.51
362.69 K, 10048 kPa, x2 = 0.0857	766.67
362.69 K, 11028 kPa, x2 = 0.0857	767.74
362.69 K, 11999 kPa, x2 = 0.0857	768.75
362.69 K, 12994 kPa, x2 = 0.0857	769.85
362.69 K, 14018 kPa, x2 = 0.0857	770.91
362.69 K, 15014 kPa, x2 = 0.0857	771.91
362.69 K, 15995 kPa, x2 = 0.0857	772.93
362.69 K, 17061 kPa, x2 = 0.0857	773.98
362.69 K, 18008 kPa, x2 = 0.0857	774.96
362.69 K, 19008 kPa, x2 = 0.0857	775.88
362.69 K, 20060 kPa, x2 = 0.0857	776.81
362.69 K, 21044 kPa, x2 = 0.0857	777.83
362.69 K, 22045 kPa, x2 = 0.0857	778.82
362.69 K, 23036 kPa, x2 = 0.0857	779.68
362.69 K, 24037 kPa, x2 = 0.0857	780.65
362.69 K, 25015 kPa, x2 = 0.0857	781.57
362.74 K, 14112 kPa, x2 = 0.4972	771.83
362.74 K, 15096 kPa, x2 = 0.4972	773.91
362.74 K, 15985 kPa, x2 = 0.4972	775.76
362.74 K, 17043 kPa, x2 = 0.4972	777.9
362.74 K, 18079 kPa, x2 = 0.4972	779.94
362.74 K, 19117 kPa, x2 = 0.4972	781.94
362.74 K, 20051 kPa, x2 = 0.4972	783.68
362.74 K, 21025 kPa, x2 = 0.4972	785.45
362.74 K, 22018 kPa, x2 = 0.4972	787.27
362.74 K, 23076 kPa, x2 = 0.4972	789.13
362.74 K, 24063 kPa, x2 = 0.4972	790.85
362.74 K, 25140 kPa, x2 = 0.4972	792.64
362.75 K, 21992 kPa, x2 = 0.8663	710.63
362.75 K, 23010 kPa, x2 = 0.8663	720.36
362.75 K, 24074 kPa, x2 = 0.8663	729.68
362.75 K, 25130 kPa, x2 = 0.8663	738.23
362.76 K, 15085 kPa, x2 = 0.5965	765.37
362.76 K, 16042 kPa, x2 = 0.5965	768.34
362.76 K, 17060 kPa, x2 = 0.5965	771.36
362.76 K, 18019 kPa, x2 = 0.5965	774.09
362.76 K, 19023 kPa, x2 = 0.5965	776.91
362.76 K, 20064 kPa, x2 = 0.5965	779.68
362.76 K, 21026 kPa, x2 = 0.5965	782.15
362.76 K, 22023 kPa, x2 = 0.5965	784.67
362.76 K, 23058 kPa, x2 = 0.5965	787.18
362.76 K, 24078 kPa, x2 = 0.5965	789.61
362.76 K, 25110 kPa, x2 = 0.5965	791.98
362.78 K, 6018 kPa, x2 = 0.1842	761.83
362.78 K, 6995 kPa, x2 = 0.1842	763.16
362.78 K, 8099 kPa, x2 = 0.1842	764.64
362.78 K, 9002 kPa, x2 = 0.1842	765.81
362.78 K, 10022 kPa, x2 = 0.1842	767.06
362.78 K, 10995 kPa, x2 = 0.1842	768.34
362.78 K, 12059 kPa, x2 = 0.1842	769.68
362.78 K, 13056 kPa, x2 = 0.1842	770.87
362.78 K, 14029 kPa, x2 = 0.1842	772.05
362.78 K, 15026 kPa, x2 = 0.1842	773.24
362.78 K, 16010 kPa, x2 = 0.1842	774.38
362.78 K, 17020 kPa, x2 = 0.1842	775.53
362.78 K, 18041 kPa, x2 = 0.1842	776.68
362.78 K, 19031 kPa, x2 = 0.1842	777.79
362.78 K, 20045 kPa, x2 = 0.1842	778.9
